Series [1] can be described thus: Chemical stability in PBS buffer solution (pH 7.4). The class given is physicochemical. The note with it: 37° C., read-out: Chemical stability t1/2. The method, then:
The compounds of the present invention (A-15, A-16, A-19, A-21 to A-25, A-28, A-29, A-36 and A-69) were each dissolved in DMSO to a concentration of 10 mM and then mixed with a PBS buffer solution (pH 7.4) to prepare as a solution having a concentration of 500 μM (5% DMSO). MPS, used as a standard material, was also prepared as a solution having a concentration of 500 μM in a PBS buffer solution. 420 μL of a PBS buffer solution and […] of each of 500 μM compounds of the present invention and MPS were mixed to prepare a total of 700 μL of reaction solution. The reaction of the mixed solution was initiated in a constant temperature incubator at 37° C. The reaction solution was aliquoted in an amount of 70 μL at 0 minutes before the reaction and at certain times after the reaction, and the remaining compounds of the present invention or MPS or the liberated MMAF or MMAE were quantitatively analyzed using the HPLC method. […] In addition, the remaining amount of Compound A-69 in a PBS buffer solution (pH 7.4) according to the incubation time is shown in FIG. 5.

The nature of series [2]: Mouse plasma stability (Method 1). The note with it: Method 1 (mouse plasma), 37° C.; read-out: Plasma stability t1/2. The class given is in vitro ADME. The method, then: Method 1: Mouse Plasma Stability
(§1) The compounds of the present invention (A-16, A-22, A-25, A-36, A-69) and MPS, used as a standard material, were each dissolved in DMSO and a PBS buffer solution to a concentration of 30 mM, and then mixed in mouse plasma (Biochemed, 029-APSC-PMG) to a final concentration of 300 μM (final 1.0% DMSO) and 600 μM of the compounds and MPS, respectively. The reaction of the mixed solution in plasma was initiated in a constant temperature incubator at 37° C. Before the reaction and on certain days after the reaction, the above samples were aliquoted in an amount of 100 μL, and 200 μL of acetonitrile (ACN, Sigma, SA-271004-1L) was added to terminate the reaction, mixed, and then vortexed for about 1 minute, and then centrifuged (Beckman, B30150) at 4° C. for 15 minutes at 14,000 rpm to precipitate plasma proteins. Each supernatant obtained by centrifugation was collected and quantitatively analyzed using the HPLC method.
(§2) The results of measuring the plasma half-life of the compounds of the present invention using Methods 1 to 4 above are shown in Table 3.

Series [3] is described as follows: Rat plasma stability (Method 3). The class given is in vitro ADME. The note with it: Method 3 (rat plasma), 37° C.; read-out: Plasma stability t1/2. The procedure:
Method 3: Rat Plasma Stability
as §1, with “(A-22,” for “(A-16, A-22, A-25, A-36,”, “rat” for “mouse”, “031-APSC-PMG)” for “029-APSC-PMG)”, “ACN” for “acetonitrile (ACN, Sigma, SA-271004-1L)”, “centrifuged” for “centrifuged (Beckman, B30150)”
as §2

Series [4] can be described thus: Beagle dog plasma stability (Method 4). The class given is in vitro ADME. The settings on record: Method 4 (beagle dog plasma), 37° C.; read-out: Plasma stability t1/2. The procedure:
Method 4: Beagle Dog Plasma Stability
as §1, with “(A-22,” for “(A-16, A-22, A-25, A-36,”, “beagle dog” for “mouse”, “014-APSC-PMG)” for “029-APSC-PMG)”, “ACN” for “acetonitrile (ACN, Sigma, SA-271004-1L)”, “centrifuged” for “centrifuged (Beckman, B30150)”
as §2

Series [5] can be described thus: Human plasma stability (Method 2). The class given is in vitro ADME. The settings on record: Method 2 (human plasma), 37° C.; read-out: Plasma stability t1/2. The procedure: Method 2: Human Plasma Stability
as §1, with “(A-19,” for “(A-16,”, “human” for “mouse”, “752PR-SC-PMG)” for “029-APSC-PMG)”, “ACN” for “acetonitrile (ACN, Sigma, SA-271004-1L)”, “centrifuged” for “centrifuged (Beckman, B30150)”
as §2

The structures appear in SMILES notation. Numbered stars: 1 amine (or outer) side, 2 acyl side, 3 side chain; on linkers, the order of the positions; unused ones are H or OH. Square brackets hold non-standard residues; d marks the D form. Peptide text beside a SMILES is read from it. * marks the point of attachment. ξ: configuration not given here. X1 = O=C(O)CCCc1cc2c(O[C@@H]3O[C@H](CO)[C@H](O)[C@H](O)[C@H]3O)ccc(COC(=O)*)c2o1; X3 = O=C(O)c1cc2c(O[C@@H]3O[C@H](CO)[C@H](O)[C@H](O)[C@H]3O)ccc(COC(=O)*)c2[se]1; X2 = O=C(O)CCc1cc2c(O[C@@H]3O[C@H](CO)[C@H](O)[C@H](O)[C@H]3O)ccc(COC(=O)*)c2s1; X4 = O=C(O)c1cc2c(O[C@@H]3O[C@H](CO)[C@H](O)[C@H](O)[C@H]3O)ccc(COC(=O)*)c2o1; Dil(5ξ) = CCC(C)[C@@H]([C@@H](CC(=O)[*:2])OC)N(C)[*:1]; Dolaproine = CO[C@@H]([C@@H]1CCCN1)[C@@H](C)C(=O)O; NMeV = CN[C@H](C(=O)O)C(C)C; ξF = NC(Cc1ccccc1)C(=O)O Some results are limits rather than exact numbers.

On to `CCC(C)[C@@H]([C@@H](CC(=O)N1CCC[C@H]1[C@H](OC)[C@@H](C)C(=O)NC(Cc1ccccc1)C(=O)O)OC)N(C)C(=O)[C@@H](NC(=O)[C@H](C(C)C)N(C)C(=O)OCc1ccc(O[C@@H]2O[C@H](CO)[C@H](O)[C@H](O)[C@H]2O)c2cc(CCC(=O)NCCOCCOCCOCCN=[N+]=[N-])sc12)C(C)C` (some centres unmarked) [Compound A-15], for which the half-life at 100 µM in series [1] was > 7 days.
Still for that read-out and setting: next, `CCC(C)[C@@H]([C@@H](CC(=O)N1CCC[C@H]1[C@H](OC)[C@@H](C)C(=O)NC(Cc1ccccc1)C(=O)O)OC)N(C)C(=O)[C@@H](NC(=O)[C@H](C(C)C)N(C)C(=O)OCc1ccc(O[C@@H]2O[C@H](CO)[C@H](O)[C@H](O)[C@H]2O)c2cc(C(=O)O)oc12)C(C)C` (some centres unmarked) [Compound A-24] (X4-[NMeV]V[Dil(5ξ)][Dolaproine][ξF]-OH): > 7 days.
Consider `CC[C@H](C)[C@@H]([C@@H](CC(=O)N1CCC[C@H]1[C@H](OC)[C@@H](C)C(=O)N[C@H](C)[C@@H](O)c1ccccc1)OC)N(C)C(=O)[C@@H](NC(=O)[C@H](C(C)C)N(C)C(=O)OCc1ccc(O[C@@H]2O[C@H](C(=O)O)[C@@H](O)[C@H](O)[C@H]2O)c2cc(Cn3cc(COCCOCCOCCOC)nn3)[se]c12)C(C)C` [Compound A-69], for which, in series [1], the half-life at 100 µM was > 7 days. For the same compound, the half-life at 300 µM in series [2], in series [3], in series [4] and in series [5] was > 7 days in each case.
As to `C#CCOCCOCCOCCOCC(=O)NCc1cc2c(O[C@@H]3O[C@H](CO)[C@H](O)[C@H](O)[C@H]3O)ccc(COC(=O)N(C)[C@H](C(=O)N[C@H](C(=O)N(C)[C@@H](C(C)CC)[C@@H](CC(=O)N3CCC[C@H]3[C@H](OC)[C@@H](C)C(=O)NC(Cc3ccccc3)C(=O)O)OC)C(C)C)C(C)C)c2s1` (some centres unmarked) [Compound A-21], the half-life at 100 µM in series [1] is > 7 days.
For `CCC(C)[C@@H]([C@@H](CC(=O)N1CCC[C@H]1[C@H](OC)[C@@H](C)C(=O)NC(Cc1ccccc1)C(=O)O)OC)N(C)C(=O)[C@@H](NC(=O)[C@H](C(C)C)N(C)C(=O)OCc1ccc(O[C@@H]2O[C@H](CO)[C@H](O)[C@H](O)[C@H]2O)c2cc(CCC(=O)O)sc12)C(C)C` (some centres unmarked) [Compound A-16] (X2-[NMeV]V[Dil(5ξ)][Dolaproine][ξF]-OH), in series [1], the half-life at 100 µM is > 7 days. Moreover, in series [2], the half-life at 300 µM was > 7 days.
For the compound `C#CCOCCOCCOCCOCC(=O)NCc1cc2c(O[C@@H]3O[C@H](CO)[C@H](O)[C@H](O)[C@H]3O)ccc(COC(=O)N(C)[C@H](C(=O)N[C@H](C(=O)N(C)[C@@H](C(C)CC)[C@@H](CC(=O)N3CCC[C@H]3[C@H](OC)[C@@H](C)C(=O)NC(Cc3ccccc3)C(=O)O)OC)C(C)C)C(C)C)c2o1` (some centres unmarked) [Compound A-28], in series [1], the half-life at 100 µM is > 7 days.
Regarding `CCC(C)[C@@H]([C@@H](CC(=O)N1CCC[C@H]1[C@H](OC)[C@@H](C)C(=O)NC(Cc1ccccc1)C(=O)O)OC)N(C)C(=O)[C@@H](NC(=O)[C@H](C(C)C)N(C)C(=O)OCc1ccc(O[C@@H]2O[C@H](CO)[C@H](O)[C@H](O)[C@H]2O)c2cc(C(=O)O)[se]c12)C(C)C` (some centres unmarked) [Compound A-29] (X3-[NMeV]V[Dil(5ξ)][Dolaproine][ξF]-OH), the half-life at 100 µM in series [1] was > 7 days.
Turning to `CC[C@H](C)[C@@H]([C@@H](CC(=O)N1CCC[C@H]1[C@H](OC)[C@@H](C)C(=O)N[C@H](C)[C@@H](O)c1ccccc1)OC)N(C)C(=O)[C@@H](NC(=O)[C@H](C(C)C)N(C)C(=O)OCc1ccc(O[C@@H]2O[C@H](CO)[C@H](O)[C@H](O)[C@H]2O)c2cc(CCC(=O)NCCOCCOCCOCCN=[N+]=[N-])oc12)C(C)C` [Compound A-25], the half-life at 100 µM in series [1] was > 7 days. The half-life at 300 µM in series [2] and in series [5] was > 7 days in each case.
Turning to `CCC(C)[C@@H]([C@@H](CC(=O)N1CCC[C@H]1[C@H](OC)[C@@H](C)C(=O)NC(Cc1ccccc1)C(=O)O)OC)N(C)C(=O)[C@@H](NC(=O)[C@H](C(C)C)N(C)C(=O)OCc1ccc(O[C@@H]2O[C@H](CO)[C@H](O)[C@H](O)[C@H]2O)c2cc(CCCC(=O)O)oc12)C(C)C` (some centres unmarked) [Compound A-22] (X1-[NMeV]V[Dil(5ξ)][Dolaproine][ξF]-OH), the half-life at 100 µM in series [1] is > 7 days. Also, the half-life at 300 µM in series [2], in series [3], in series [4] and in series [5] was > 7 days in each case.
Take `CCC(C)[C@@H]([C@@H](CC(=O)N1CCC[C@H]1[C@H](OC)[C@@H](C)C(=O)NC(Cc1ccccc1)C(=O)O)OC)N(C)C(=O)[C@@H](NC(=O)[C@H](C(C)C)N(C)C(=O)OCc1ccc(O[C@@H]2O[C@H](CO)[C@H](O)[C@H](O)[C@H]2O)c2cc(Cn3cc(COCCOCCOCCOC)nn3)sc12)C(C)C` (some centres unmarked) [Compound A-19]: the half-life at 100 µM in series [1] was > 7 days. The half-life at 300 µM in series [5] was > 7 days.
Take `CCC(C)[C@@H]([C@@H](CC(=O)N1CCC[C@H]1[C@H](OC)[C@@H](C)C(=O)NC(Cc1ccccc1)C(=O)O)OC)N(C)C(=O)[C@@H](NC(=O)[C@H](C(C)C)N(C)C(=O)OCc1ccc(O[C@@H]2O[C@H](CO)[C@H](O)[C@H](O)[C@H]2O)c2cc(CCCC(=O)NCCOCCOCCOCCN=[N+]=[N-])oc12)C(C)C` (some centres unmarked) [Compound A-23]: the half-life at 100 µM in series [1] is > 7 days.

The record behind these values is patent publication US12576156B2, “Compound comprising self-immolative group and ligand-drug conjugate comprising same” (priority 2022, dated 2026).
